Experimental data taken from ChEMBL document CHEMBL5576149, “Discovery of Potent STT3A/B Inhibitors and Assessment of Their Multipathogen Antiviral Potential and Safety” (J Med Chem, 2024).
≈ marks a conversion by molar mass, not a printed value. Calls of active or inactive are those of the source. The rule behind the calls is not given here.

Legend:
H1-HeLa [1] = assay: Inhibition of STT3A/STT3B in human H1-HeLa cells assessed as upregulation of SDF2L1 gene expression incubated for 24 hrs; type: cell-based
Influenza A virus [2] = assay: Antiviral activity against influenza A virus H1N1 A/Puerto Rico/8/1934 infected in MDCK cells assessed as reduction in viral replication measured after 3 hrs of post-infection by RT-qPCR analysis relative to control; type: functional; parameters: scale not given: the % may be the effect or the level left
[3] = Chromatographic hydrophobicity index, logD of the compound at pH 7.4; type: physicochemical; conditions: buffer
H1-HeLa [4] = assay: Inhibition of STT3A/STT3B in human H1-HeLa cells assessed as upregulation of DERL3 gene expression incubated for 24 hrs; type: cell-based
Human respirovirus 3 = assay: Antiviral activity against Human parainfluenza virus 3 JS infected in human A549 cells assessed as reduction in viral proliferation incubated for 44 hrs by Hoechst dye based fluorescence analysis; type: functional, organism-based; conditions: Human respirovirus 3, JS, A549, 44 h
[5] = Cardiotoxicity in human iPSC-CM cells assessed as decrease in spike amplitude at 3 uM incubated for 1 hr by multi-electrode array analysis; type: toxicity, cell-based; parameters: scale not given: the % may be the effect or the level left
[6] = biological target: Sodium channel protein type 5 subunit alpha (Homo sapiens, UniProt Q14524); assay: Inhibition of Nav1.5 (unknown origin); type: toxicity
[7] = Solubility of compound in FaSSIF; type: ADME
H1-HeLa [8] = assay: Inhibition of STT3A/STT3B in human H1-HeLa cells assessed as upregulation of MANF gene expression incubated for 24 hrs; type: cell-based
[9] = biological target: Voltage-dependent L-type calcium channel subunit alpha-1C (Homo sapiens, UniProt Q13936); assay: Inhibition of Cav1.2 (unknown origin) expressed in HEK cells by manual patch clamp assay; type: toxicity, cell-based
[10] = Cardiotoxicity in human iPSC-CM cells assessed as decrease in spike amplitude at 370 nM incubated for 48 hr by multi-electrode array analysis; type: toxicity, cell-based; conditions: 0.37 µM
[11] = Cytotoxicity against human MRC5 cells by luminescence-based cell viability assay; type: toxicity
[12] = Volume of distribution at steady state in CD1 mouse at 2 mg/kg,po or 1 mg/kg,iv administrated upto 60 mins by LC-MS/MS analysis; type: ADME, organism-based; conditions: in vivo, 1 h
[13] = Unbound clearance in CD1 mouse at 2 mg/kg,po or 1 mg/kg,iv administrated upto 60 mins by LC-MS/MS analysis; type: ADME, organism-based; conditions: in vivo, 1 h
[14] = Neurotoxicity in human iPSC cells co-cultured with human astrocyte assessed as […] incubated for 1 hr by multi-electrode array analysis; type: toxicity, cell-based; conditions: iPSC cells co-cultured with astrocytes
SARS-CoV-2 = assay: Antiviral activity against SARS-CoV-2 infected in human A549 cells assessed as reduction in viral growth incubated for 24 hrs by Nano-Glo reagent based analysis; type: functional, organism-based; conditions: Severe acute respiratory syndrome coronavirus 2, A549, 24 h
[15] = Unbound clearance in rat liver microsomes at 0.5 uM incubated upto 45 mins; type: ADME, Microsome; conditions: 0.75 h
Influenza A virus [16] = assay: Antiviral activity against influenza A virus H1N1 A/Puerto Rico/8/1934 infected in MDCK cells assessed as reduction in viral replication measured after 30 hrs of post-infection by RT-qPCR analysis relative to control; type: functional; parameters: scale not given: the % may be the effect or the level left
[17] = Bioavailability in CD1 mouse at 2 mg/kg,po or 1 mg/kg,iv administrated upto 60 mins by LC-MS/MS analysis; type: ADME, organism-based; conditions: in vivo
[18] = Neurotoxicity in human iPSC cells co-cultured with human astrocyte assessed as inhibition of cell growth at 300 nM incubated for 48 hr by multi-electrode array analysis relative to control; type: toxicity, cell-based; conditions: iPSC cells co-cultured with astrocytes
[19] = biological target: T1, Voltage-gated inwardly rectifying potassium channel KCNH2 (Homo sapiens, UniProt Q12809); assay: Inhibition of hERG expressed in CHO cells by QPatch voltage clamp assay; type: toxicity, cell-based
[20] = Inhibition of STT3A/STT3B mediated N-linked glycosylation in human H1-HeLa cells stably transduced with ERluc by measuring effective concentration of inhibition incubated for 18 hrs by One-Glo luciferase reporter assay; type: cell-based
[21] = Cytotoxicity against human Hepatocyte cultured as 3D spheroids incubated for 14 days by CellTiter-Glo luminescence assay; type: toxicity, cell-based; conditions: hepatocytes cultured as 3D spheroids
[22] = MRT in CD1 mouse at 2 mg/kg,po or 1 mg/kg,iv administrated upto 60 mins by LC-MS/MS analysis; type: ADME, organism-based; conditions: in vivo
[23] = Neurotoxicity in human iPSC cells co-cultured with human astrocyte assessed as reduction in neuronal firing rate at 0.37 to 30 uM incubated for 1 hr by multi-electrode array analysis; type: toxicity, cell-based; conditions: dose 0.37-30 µM
[24] = Unbound clearance in human liver microsomes at 0.5 uM incubated upto 45 mins; type: ADME, Microsome; conditions: 0.75 h
[25] = Inhibition of STT3A/STT3B mediated N-linked glycosylation in STT3A knockout human H1-HeLa cells stably transduced with Halo3N-ER sequence by measuring effective concentration incubated for 24 hrs by Western blotting analysis; type: cell-based
[26] = Cardiotoxicity in human iPSC-CM cells assessed as decrease in beat period at 30 uM incubated for 1 hr by multi-electrode array analysis; type: toxicity, cell-based
[27] = Cardiotoxicity in human iPSC-CM cells assessed as increase in field potential duration at 10 uM incubated for 1 hr by multi-electrode array analysis; type: toxicity, cell-based
[28] = Cardiotoxicity in human iPSC-CM cells assessed as decrease in beat period at 1 uM incubated for 48 hr by multi-electrode array analysis; type: toxicity, cell-based
H1-HeLa [29] = assay: Inhibition of STT3A/STT3B in human H1-HeLa cells assessed as upregulation of […] gene expression incubated for 24 hrs; type: cell-based
A549 [30] = assay: Cytotoxicity against human A549 cells by fluorescent cell imaging assay; type: functional
A549 [31] = assay: Cytotoxicity against human A549 cells; type: functional
[32] = Inhibition of STT3A/STT3B mediated N-linked glycosylation in STT3B knockout human H1-HeLa cells stably transduced with Halo3N-ER sequence by measuring effective concentration incubated for 24 hrs by Western blotting analysis; type: cell-based
[33] = Cardiotoxicity in human iPSC-CM cells assessed as increase in field potential duration at 370 nM incubated for 48 hr by multi-electrode array analysis; type: toxicity, cell-based; conditions: 0.37 µM
Human coronavirus 229E = assay: Antiviral activity against Human coronavirus 229E infected in human MRC5 cells assessed as reduction in viral growth incubated for 68 hrs by CellTiter-Glo luminescence assay; type: functional, organism-based; conditions: MRC5, 68 h
Influenza A virus [34] = assay: Antiviral activity against influenza A virus H1N1 A/Puerto Rico/8/1934 infected in MDCK cells assessed as reduction in viral proliferation incubated for 24 hrs by FFU assay; type: functional, organism-based; conditions: H1N1 A/Puerto Rico/8/1934, MDCK
[35] = Cardiotoxicity in human iPSC-CM cells assessed as increase in field potential duration incubated for 48 hr by multi-electrode array analysis; type: toxicity, cell-based
[36] = Cardiotoxicity in human iPSC-CM cells assessed as decrease in spike amplitude incubated for 48 hr by multi-electrode array analysis; type: toxicity, cell-based
[37] = biological target: T1, Voltage-gated inwardly rectifying potassium channel KCNH2; assay: Inhibition of HA-tagged hERG expressed in human U2OS cells assessed as reduction in ERG protein at 3 uM incubated for 24 hrs by Western blotting analysis; type: toxicity, cell-based

T1 sequence (Q12809 whole entry): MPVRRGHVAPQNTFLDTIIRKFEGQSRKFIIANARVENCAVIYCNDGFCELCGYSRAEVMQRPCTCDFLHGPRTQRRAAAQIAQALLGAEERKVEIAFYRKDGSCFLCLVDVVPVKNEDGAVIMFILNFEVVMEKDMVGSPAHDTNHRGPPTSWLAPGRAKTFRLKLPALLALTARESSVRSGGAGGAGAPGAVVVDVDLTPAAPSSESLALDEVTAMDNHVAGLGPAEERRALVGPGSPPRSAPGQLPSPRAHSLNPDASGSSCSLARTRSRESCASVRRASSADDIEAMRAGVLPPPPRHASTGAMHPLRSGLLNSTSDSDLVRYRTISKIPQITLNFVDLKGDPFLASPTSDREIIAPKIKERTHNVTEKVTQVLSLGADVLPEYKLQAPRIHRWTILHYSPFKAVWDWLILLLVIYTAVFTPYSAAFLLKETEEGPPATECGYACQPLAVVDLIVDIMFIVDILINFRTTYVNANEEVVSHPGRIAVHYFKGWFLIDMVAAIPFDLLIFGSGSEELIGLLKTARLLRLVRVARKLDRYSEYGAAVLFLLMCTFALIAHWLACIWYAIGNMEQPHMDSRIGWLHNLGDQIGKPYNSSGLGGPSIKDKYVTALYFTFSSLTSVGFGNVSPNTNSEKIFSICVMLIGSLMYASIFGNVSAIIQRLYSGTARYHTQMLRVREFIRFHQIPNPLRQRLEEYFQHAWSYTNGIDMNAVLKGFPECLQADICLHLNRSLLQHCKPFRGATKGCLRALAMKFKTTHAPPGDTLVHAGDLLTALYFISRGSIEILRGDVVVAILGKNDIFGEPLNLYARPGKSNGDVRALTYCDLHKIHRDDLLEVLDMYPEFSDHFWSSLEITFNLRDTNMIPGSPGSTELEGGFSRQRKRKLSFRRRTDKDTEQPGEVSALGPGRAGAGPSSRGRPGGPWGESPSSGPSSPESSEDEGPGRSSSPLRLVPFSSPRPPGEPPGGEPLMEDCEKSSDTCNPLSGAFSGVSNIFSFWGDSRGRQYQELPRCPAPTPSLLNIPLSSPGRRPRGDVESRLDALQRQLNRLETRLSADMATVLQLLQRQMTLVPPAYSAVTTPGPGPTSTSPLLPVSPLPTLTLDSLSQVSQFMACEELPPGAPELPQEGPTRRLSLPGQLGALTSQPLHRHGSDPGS
Chain of Voltage-dependent L-type calcium channel subunit alpha-1C (Q13936 whole entry): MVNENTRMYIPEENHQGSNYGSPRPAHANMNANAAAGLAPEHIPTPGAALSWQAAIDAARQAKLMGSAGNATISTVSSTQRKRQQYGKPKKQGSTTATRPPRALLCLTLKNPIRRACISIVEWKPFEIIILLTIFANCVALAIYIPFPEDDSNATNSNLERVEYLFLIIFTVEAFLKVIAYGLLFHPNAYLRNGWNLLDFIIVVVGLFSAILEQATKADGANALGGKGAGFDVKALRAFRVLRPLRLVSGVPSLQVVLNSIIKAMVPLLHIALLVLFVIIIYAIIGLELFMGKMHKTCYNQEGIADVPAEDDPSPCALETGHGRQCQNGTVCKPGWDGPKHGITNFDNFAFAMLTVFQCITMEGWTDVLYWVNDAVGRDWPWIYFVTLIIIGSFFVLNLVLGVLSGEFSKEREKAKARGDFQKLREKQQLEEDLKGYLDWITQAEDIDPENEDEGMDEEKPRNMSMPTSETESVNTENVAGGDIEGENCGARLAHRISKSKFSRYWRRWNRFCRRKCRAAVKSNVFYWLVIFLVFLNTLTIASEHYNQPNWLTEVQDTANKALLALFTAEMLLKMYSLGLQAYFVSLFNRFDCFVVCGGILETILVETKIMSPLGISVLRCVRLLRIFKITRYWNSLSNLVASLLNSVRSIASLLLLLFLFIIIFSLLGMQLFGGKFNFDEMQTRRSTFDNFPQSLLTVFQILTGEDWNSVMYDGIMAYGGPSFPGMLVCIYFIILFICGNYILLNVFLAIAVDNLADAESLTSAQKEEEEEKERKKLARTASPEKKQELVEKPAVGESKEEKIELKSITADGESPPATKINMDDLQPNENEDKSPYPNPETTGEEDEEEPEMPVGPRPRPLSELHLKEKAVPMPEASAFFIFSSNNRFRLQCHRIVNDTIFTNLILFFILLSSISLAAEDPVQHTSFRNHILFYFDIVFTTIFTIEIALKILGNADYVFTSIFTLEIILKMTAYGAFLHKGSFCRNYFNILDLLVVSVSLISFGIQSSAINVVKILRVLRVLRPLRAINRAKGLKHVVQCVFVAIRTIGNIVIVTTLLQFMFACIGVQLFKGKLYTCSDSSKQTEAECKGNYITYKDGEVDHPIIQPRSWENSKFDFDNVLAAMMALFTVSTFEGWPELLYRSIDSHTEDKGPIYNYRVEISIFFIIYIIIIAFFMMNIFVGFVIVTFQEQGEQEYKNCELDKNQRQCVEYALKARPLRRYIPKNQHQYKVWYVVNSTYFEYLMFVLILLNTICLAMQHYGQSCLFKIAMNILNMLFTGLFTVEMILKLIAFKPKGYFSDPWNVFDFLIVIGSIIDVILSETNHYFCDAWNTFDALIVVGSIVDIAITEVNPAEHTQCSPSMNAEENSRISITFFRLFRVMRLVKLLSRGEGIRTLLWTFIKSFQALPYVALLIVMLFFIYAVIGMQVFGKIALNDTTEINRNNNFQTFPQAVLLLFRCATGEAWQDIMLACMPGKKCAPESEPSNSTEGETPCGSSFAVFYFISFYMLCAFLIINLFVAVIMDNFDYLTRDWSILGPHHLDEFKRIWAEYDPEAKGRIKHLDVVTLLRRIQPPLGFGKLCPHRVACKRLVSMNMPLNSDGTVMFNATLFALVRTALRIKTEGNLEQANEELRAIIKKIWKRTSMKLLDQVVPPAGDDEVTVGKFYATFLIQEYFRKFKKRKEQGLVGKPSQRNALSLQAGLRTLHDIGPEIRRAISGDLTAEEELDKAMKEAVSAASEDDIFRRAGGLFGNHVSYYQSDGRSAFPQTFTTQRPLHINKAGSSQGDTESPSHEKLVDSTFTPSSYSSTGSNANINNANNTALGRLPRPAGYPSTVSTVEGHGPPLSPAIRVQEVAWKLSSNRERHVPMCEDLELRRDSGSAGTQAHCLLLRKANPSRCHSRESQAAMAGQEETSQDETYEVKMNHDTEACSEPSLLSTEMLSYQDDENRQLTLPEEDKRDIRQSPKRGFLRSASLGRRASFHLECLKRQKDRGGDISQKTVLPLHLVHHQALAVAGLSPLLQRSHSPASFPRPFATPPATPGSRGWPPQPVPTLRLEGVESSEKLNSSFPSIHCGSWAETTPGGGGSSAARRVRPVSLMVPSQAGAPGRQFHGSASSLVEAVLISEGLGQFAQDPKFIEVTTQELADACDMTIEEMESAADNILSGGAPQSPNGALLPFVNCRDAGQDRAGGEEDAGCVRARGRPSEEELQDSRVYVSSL

CN(C)S(=O)(=O)c1ccc(N2CC[C@H](O)C2)c(-c2cc3ccccc3[nH]2)c1
inhibition (H1-HeLa [1]): Active | Activity (Influenza A virus [2]): >90% | chromatographic logD [3]: 4.8 | inhibition (H1-HeLa [4]): Active | EC50 (Human respirovirus 3): 187 nM | Activity [5]: 20% | IC50 [6]: ~20000 nM | solubility [7]: 53 µg/mL (≈ 137 µM) | inhibition (H1-HeLa [8]): Active | IC50 [9]: > 100000 nM | Activity [10]: Toxic | CC50 [11]: 984 nM | Vdss [12]: 4.3 L/kg | CL free [13]: 2268 mL/min/kg | IC50 at 1 hr [14]: 23000 nM | EC50 (SARS-CoV-2): 62 nM | CL free [15]: 3761 mL/min/kg | Activity (Influenza A virus [16]): 60% | bioavailability [17]: 28% | inhibition at 48 h, 0.3 µM [18]: 75% | IC50 [19]: ~20000 nM | EC50 [20]: 23 nM | IC50 at 14 days [21]: < 1200 nM | MRT [22]: 1 h | Activity [23]: Toxic | CL free [24]: 158 mL/min/kg | EC50 [25]: 63 nM | Activity [26]: Toxic | Activity [27]: 20% | Activity [28]: Toxic | inhibition (H1-HeLa [29]): Active | CC50 (A549 [30]): 831 nM | CC50 (A549 [31]): 2750 nM | EC50 [32]: 41 nM | Activity [33]: Toxic | EC50 (Human coronavirus 229E): 30 nM | EC50 (Influenza A virus [34]): 297 nM

C=C[C@H]1C[N@@]2CC[C@H]1C[C@@H]2[C@@H](O)c1ccnc2ccc(OC)cc12 [QUINIDINE]
Activity [35]: Non-Toxic | Activity [36]: Non-Toxic

O=C([C@@H]1CCN1S(=O)(=O)c1ccc(N2CCC(F)(F)C2)c(-c2cc3ccccc3[nH]2)c1)N1CCOCC1
chromatographic logD [3]: 5.3 | inhibition (INH) [37]: Active | CL free [15]: > 4854 mL/min/kg | EC50 [20]: 5 nM | IC50 at 14 days [21]: < 1200 nM | CL free [24]: > 2851 mL/min/kg
